One data set addresses CYP3A4 (Homo sapiens (Human), UniProt P08684). Put plainly: CYP3A4(MDZ) MBI test. The format is in vitro ADME. The following applies: pooled human liver microsomes, midazolam 1-hydroxylation, preincubation 0 or 30 minutes. As for the experimental part:
CYP3A4(MDZ) MBI test is a test of investigating mechanism based inhibition (MBI) potential on CYP3A4 inhibition of a compound. CYP3A4 inhibition is evaluated using 1-hydroxylation reaction of midazolam (MDZ) by pooled human liver microsomes as a marker reaction.
The reaction conditions were as follows: substrate, 10 μmol/L MDZ; pre-reaction time, 0 or 30 minutes; substrate reaction time, 2 minutes; reaction temperature, 37° C.; protein content of pooled human liver microsomes, 0.5 mg/mL at pre-reaction time, […] (at 10-fold dilution) at reaction time; concentrations of the compound of the present invention, 1, 5, 10, 20 μmol/L (4 points).
Pooled human liver microsomes in a K-Pi buffer (pH 7.4) and a compound of the present invention solution as a pre-reaction solution were added to a 96-well plate at the composition of the pre-reaction. A part of pre-reaction solution was transferred to another 96-well plate, and diluted 10-fold by a substrate in a K-Pi buffer. NADPH as a co-factor was added to initiate the marker reaction (without preincubation). After a predetermined time of the marker reaction, methanol/acetonitrile=1/1 (v/v) solution was added in order to terminate the marker reaction. On the other hand, NADPH was also added to a remaining pre-reaction solution in order to initiate a pre-reaction (with preincubation). After a predetermined time of a pre-reaction, a part was transferred to another 96-well plate, and diluted 10-fold by a substrate in a K-Pi buffer in order to initiate the marker reaction. After a predetermined time of the marker reaction, methanol/acetonitrile=1/1 (v/v) solution is added in order to terminate the marker reaction. After centrifuged at 3000 rpm for 15 minutes, 1-hydroxymidazolam in the supernatant is quantified by LC/MS/MS.
The sample adding DMSO to a reaction system instead of compound of the present invention solution was adopted as a control (100%) because DMSO is used as a solvent to dissolve a compound of the present invention. Remaining activity (%) was calculated at each concentration of the compound of the present invention added as the solution, and IC50 value was calculated by reverse-presumption using a logistic model with a concentration and an inhibition rate. Shifted IC value was calculated as “IC value without preincubation (0 minutes)/IC value with preincubation (30 minutes)″. When a shifted IC value was 1.5 or more, this was defined as positive. When a shifted IC value was less than 1.1, this was defined as negative.

The target of data set [1] is recombinant BACE1 protein (Homo sapiens (Human), UniProt P56817). Put plainly: BACE1 biochemical FRET based assay. The following applies: for Selectivity: BACE1 versus BACE2; for pIC50: FRET, pH 5.0. The text has this: (1) BACE1 Biochemical FRET Based Assay
Sequence of recombinant BACE1 protein (P56817 46-501): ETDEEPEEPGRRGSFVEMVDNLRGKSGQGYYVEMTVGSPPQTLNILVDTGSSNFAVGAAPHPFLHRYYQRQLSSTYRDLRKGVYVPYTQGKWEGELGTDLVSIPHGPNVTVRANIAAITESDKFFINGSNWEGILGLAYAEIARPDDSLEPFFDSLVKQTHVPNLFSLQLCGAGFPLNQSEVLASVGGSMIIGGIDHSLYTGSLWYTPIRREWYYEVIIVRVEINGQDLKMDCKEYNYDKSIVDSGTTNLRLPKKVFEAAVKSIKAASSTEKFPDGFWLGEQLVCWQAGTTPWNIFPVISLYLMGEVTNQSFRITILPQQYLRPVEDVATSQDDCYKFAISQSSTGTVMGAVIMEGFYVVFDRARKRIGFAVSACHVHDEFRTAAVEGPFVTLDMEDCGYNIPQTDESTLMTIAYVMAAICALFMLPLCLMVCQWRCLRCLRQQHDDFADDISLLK
(§1) This assay is a Fluorescence Resonance Energy Transfer Assay (FRET) based assay. The substrate for this assay is an APP derived 13 amino acids peptide that contains the ‘Swedish’ Lys-Met/Asn-Leu mutation of the amyloid precursor protein (APP) beta-site secretase cleavage site. This substrate also contains two fluorophores: (7-methoxycoumarin-4-yl) acetic acid (Mca) is a fluorescent donor with excitation wavelength at 320 nm and emission at 405 nm and 2,4-dinitrophenol (Dnp) is a proprietary quencher acceptor. […] Upon cleavage by BACE1, the fluorophore Mca is separated from the quenching group Dnp, restoring the full fluorescence yield of the donor. The increase in fluorescence is linearly related to the rate of proteolysis.
Briefly in a 384-well format recombinant BACE1 protein in a final concentration of 0.04 μg/mL was incubated for 450 minutes at room temperature with […] substrate in incubation buffer (final concentrations: 33.3 mM Citrate buffer pH 5.0, 0.033% PEG, 3% DMSO) in the absence or presence of compound. Next the amount of proteolysis was directly measured by fluorescence measurement at T=0′-120′ and T=450′ (excitation at 320 nm and emission at 405 nm). Results were expressed in RFU (Relative Fluorescence Units), as difference between T450 and Tx (Tx is chosen depending on the reaction speed between 0 and 120 minutes).
(§2) A best-fit curve was fitted by a minimum sum of squares method to the plot of % Controlmin versus compound concentration. From this an IC50 value (inhibitory concentration causing 50% inhibition of activity) can be obtained.
(§3) LC=Median of the low control values
(§4) =Low control: Reaction without enzyme
(§5) HC=Median of the High control values
=High Control: Reaction with enzyme % Effect=100−[(sample−LC)/(HC−LC)*100] % Control=(sample/HC)*100 % Controlmin=(sample−LC)/(HC−LC)*100

A further data set in a line: Metabolic stability test. It is filed as in vitro ADME. The following applies: human liver microsomes, 37° C., NADPH. As for the experimental part:
Using a commercially available pooled human liver microsomes, a compound of the present invention was reacted for a constant time, a remaining rate was calculated by comparing a reacted sample and an unreacted sample, thereby, a degree of metabolism in liver was assessed.
A reaction was performed (oxidative reaction) at 37° C. for 0 minute or 30 minutes in the presence of 1 mmol/L NADPH in 0.2 mL of a buffer (50 mmol/L Tris-HCl pH 7.4, 150 mmol/L potassium chloride, 10 mmol/L magnesium chloride) containing 0.5 mg protein/mL of human liver microsomes. After the reaction, 50 μL of the reaction solution was added to 100 μL of a methanol/acetonitrile=1/1 (v/v), mixed and centrifuged at 3000 rpm for 15 minutes. The compound of the present invention in the supernatant was quantified by LC/MS/MS or solid phase extraction (SPE)MS, and a remaining amount of the compound of the present invention after the reaction was calculated, letting a compound amount at 0 minute reaction time to be 100%.

Data set [2] concerns the target recombinant BACE2 protein (Homo sapiens (Human), UniProt Q9Y5Z0). Put plainly: BACE2 biochemical FRET based assay. The following applies: pH 5.0.
Excerpt: (2) BACE2 Biochemical FRET Based Assay
as §1, with “assay” for “assay is an APP derived 13 amino acids peptide that”, “beta-secretase” for “beta-site secretase”, “the beta-secretase,” for “BACE1,”
Briefly in a 384-well format recombinant BACE2 protein in a final concentration of 0.4 μg/mL was incubated for 450 minutes at room temperature with 10 μM substrate in incubation buffer (final concentrations: 33.3 mM Citrate buffer pH 5.0, 0.033% PEG, 2% DMSO) in the absence or presence of compound. Next the amount of proteolysis was directly measured by fluorescence measurement at T=0 and T=450 (excitation at 320 nm and emission at 405 nm). Results were expressed in RFU (Relative Fluorescence Units), as difference between T450 and TO.
as §2, §3, §4, §5

Molecules are shown by their SMILES. pIC50: −log10 of the molar value.

Sequence of CYP3A4 (P08684 whole entry): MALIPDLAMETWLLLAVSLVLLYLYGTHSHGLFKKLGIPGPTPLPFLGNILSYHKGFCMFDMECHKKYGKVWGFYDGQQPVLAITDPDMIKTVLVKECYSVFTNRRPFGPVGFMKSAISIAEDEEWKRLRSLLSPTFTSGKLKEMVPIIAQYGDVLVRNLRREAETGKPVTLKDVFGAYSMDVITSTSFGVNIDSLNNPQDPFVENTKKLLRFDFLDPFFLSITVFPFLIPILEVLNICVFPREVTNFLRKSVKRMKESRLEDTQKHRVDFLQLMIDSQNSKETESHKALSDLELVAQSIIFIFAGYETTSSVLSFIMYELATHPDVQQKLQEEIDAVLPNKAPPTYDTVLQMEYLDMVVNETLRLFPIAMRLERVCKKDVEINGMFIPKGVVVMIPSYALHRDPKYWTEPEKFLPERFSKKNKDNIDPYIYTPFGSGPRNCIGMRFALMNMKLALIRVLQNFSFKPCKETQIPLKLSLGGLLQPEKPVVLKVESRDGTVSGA
Sequence of recombinant BACE2 protein (Q9Y5Z0 63-518): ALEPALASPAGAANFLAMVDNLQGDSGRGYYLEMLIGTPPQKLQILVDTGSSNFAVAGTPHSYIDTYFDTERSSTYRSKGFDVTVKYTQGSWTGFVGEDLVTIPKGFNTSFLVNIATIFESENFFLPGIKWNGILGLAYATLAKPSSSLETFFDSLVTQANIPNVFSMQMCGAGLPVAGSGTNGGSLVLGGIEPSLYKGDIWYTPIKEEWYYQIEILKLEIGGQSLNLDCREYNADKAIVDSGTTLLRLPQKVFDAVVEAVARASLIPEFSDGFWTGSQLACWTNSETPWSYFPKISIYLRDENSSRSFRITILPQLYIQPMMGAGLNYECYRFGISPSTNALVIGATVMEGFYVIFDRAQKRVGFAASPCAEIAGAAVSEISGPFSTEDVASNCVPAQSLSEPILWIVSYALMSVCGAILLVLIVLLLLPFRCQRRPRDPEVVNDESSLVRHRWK

As for `NC1=N[C@](CF)(c2cc(NC(=O)c3cnc(OC(F)F)cn3)ccc2F)[C@H]2COCC[C@H]2O1` [Compound I-076], the “MBI MDZ” value at CYP3A4 was “Negative (When a shifted IC value was less than 1.1, this was defined as negative)”. In data set [1], the Selectivity was 63.1 and the pIC50 was 8.55. Also, the “Remaining rate(%) at 30 min” value in the data set “Metabolic stability test” was found to be 91.7%. Moreover, the pIC50 in data set [2] was 6.75.
On to `COc1cnc(C(=O)Nc2ccc(F)c([C@@]3(CF)N=C(N)O[C@@H]4CCOC[C@@H]43)c2)cn1` [Compound I-067], for which the “MBI MDZ” value on CYP3A4 is recorded as “Negative (When a shifted IC value was less than 1.1, this was defined as negative)”. The Selectivity in data set [1] was 30.2. For the same molecule, the pIC50 in data set [1] was 8.05; in data set [2], 6.57. For the same molecule, the “Remaining rate(%) at 30 min” value in “Metabolic stability test” amounted to 91.4%.
On to `NC1=N[C@](CF)(c2cc(NC(=O)c3ccc(C(F)(F)F)cn3)ccc2F)[C@H]2COCC[C@H]2O1` [Compound I-105], for which the “MBI MDZ” value on CYP3A4 is “Negative (When a shifted IC value was less than 1.1, this was defined as negative)”. Also, in data set [1], the Selectivity turned out to be 17.8 and the pIC50 was 7.77. Further, in the data set “Metabolic stability test”, the “Remaining rate(%) at 30 min” value turned out to be 87.9%. The pIC50 in data set [2] is 6.52.
With `C[C@@H]1C[C@H]2OC(N)=N[C@](CF)(c3cc(NC(=O)c4cnc(OCF)cn4)ccc3Cl)[C@H]2CO1` [Compound I-065], at CYP3A4, the “MBI MDZ” value was “Negative (When a shifted IC value was less than 1.1, this was defined as negative)”. Moreover, in data set [1], the Selectivity is on record as 35.5 and the pIC50 is 8.02. Also, in “Metabolic stability test”, the “Remaining rate(%) at 30 min” value was found to be 79.6%. In data set [2], the pIC50 was 6.47.
Turning to `C[C@@H]1C[C@H]2OC(N)=N[C@](CF)(c3cc(NC(=O)c4cnc(OCF)cn4)ccc3F)[C@H]2CO1` [Compound I-008], the “MBI MDZ” value at CYP3A4 was “Negative (When a shifted IC value was less than 1.1, this was defined as negative)”. Besides, in data set [1], the Selectivity came to 43.7 and the pIC50 is 7.83. The “Remaining rate(%) at 30 min” value in the data set “Metabolic stability test” came out at 94.4%. In addition, the pIC50 in data set [2] was 6.19.
Turning to `NC1=N[C@](CF)(c2cc(NC(=O)c3cnc(-n4cncn4)cn3)ccc2F)[C@H]2COCC[C@H]2O1` [Compound I-047], the “MBI MDZ” value at CYP3A4 is listed as “Negative (When a shifted IC value was less than 1.1, this was defined as negative)”. Moreover, in data set [1], the Selectivity is listed as 69.2 and the pIC50 was 7.77. The “Remaining rate(%) at 30 min” value in “Metabolic stability test” is reported as 61.6%. In addition, in data set [2], the pIC50 was 5.93.
For `NC1=N[C@](CF)(c2cc(NC(=O)c3cnc(OCF)cn3)ccc2F)[C@H]2COCC[C@H]2O1` [Compound I-007], the “MBI MDZ” value on CYP3A4 was “Negative (When a shifted IC value was less than 1.1, this was defined as negative)”. Moreover, in data set [1], the Selectivity is 40.7 and the pIC50 is 8.13. Moreover, the “Remaining rate(%) at 30 min” value in “Metabolic stability test” was determined as 107%. For the same molecule, the pIC50 in data set [2] is 6.52.
